US11242340B2, “Crystal forms of demethyleneberberine hydrochloride and preparation method therefor” (priority 2018, dated 2022)
Counter-ions that a name gives are not always drawn.

What was measured:
[1] = Stability in high-temperature experiment (60±2° C.); assay type: physicochemical
Method: Demethyleneberberine hydrochloride crystals A, B, C and D are taken in an appropriate amount and placed in plates numbered as A1, B1, C1 and D1 respectively, and then the plates are placed in a high-temperature environment at 60±2° C. respectively for stability test.

[2] = Stability in high-humidity experiment (RH90±5%); assay type: physicochemical
From the text: Demethyleneberberine hydrochloride crystals A, B, C and D are taken in an appropriate amount and placed in plates numbered as A2, B2, C2 and D2 respectively, and then the plates are placed in a high-humidity environment at RH90±5% respectively for stability test.

[3] = Stability in strong light irradiation experiment (4,500 lx±500 lx); assay type: physicochemical
From the text: Demethyleneberberine hydrochloride crystals A, B, C and D are taken in an appropriate amount and placed in plates numbered as A3, B3, C3 and D3 respectively, and then the plates are placed in a strong light irradiation environment at 4,500 lx±500 lx respectively for stability test.

[4] = Solubility in water system at different temperatures, HPLC; assay type: physicochemical; conditions: hydrochloride
Method: Demethyleneberberine hydrochloride crystals A, B, C and D are taken in an appropriate amount and the solubility of demethyleneberberine hydrochloride crystals A, B, C and D at different temperatures in a water system is studied respectively. 20 μl of sample is taken at each temperature node and detected by HPLC.

[5] = Solubility in methanol system at different temperatures, HPLC; assay type: physicochemical; conditions: FIG. 14, hydrochloride
Method: Demethyleneberberine hydrochloride crystals A, B, C and D are taken in an appropriate amount and the solubility of demethyleneberberine hydrochloride crystals A, B, C and D at different temperatures in a methanol system is studied respectively. 20 μl of sample is taken at each temperature node and detected by HPLC.

[6] = Solubility in ethanol system at different temperatures, HPLC; assay type: physicochemical; conditions: FIG. 15, hydrochloride
Method: Demethyleneberberine hydrochloride crystals A, B, C and D are taken in an appropriate amount and the solubility of demethyleneberberine hydrochloride crystals A, B, C and D at different temperatures in an ethanol system is studied respectively. 20 μl of sample is taken at each temperature node and detected by HPLC.

[7] = Determination of blood concentration in rats after ig administration; assay type: in vivo; conditions: male SD rats, ig 200 mg/kg, plasma, hydrochloride
Method: Male SD rats are adaptively bred for 3 days, and rats having (220±20) g body weight are selected and divided into 5 groups, namely, blank group, demethyleneberberine hydrochloride crystal form A group, demethyleneberberine hydrochloride crystal form B group, demethyleneberberine hydrochloride crystal form C group and demethyleneberberine hydrochloride crystal form D group. Food supply is stopped for 12 h for gastric emptying before the experiment. For the rats in the experimental groups, ig (intragastric) administration dosage is 200 mg/kg. 0.2 ml of blood is taken from the orbits of the rats at 5 min., 15 min., 30 min., 1 h, 2 h, 6 h and 12 h respectively after ig administration, the whole blood is centrifuged, and 100 μl of plasma is taken and frozen at −20° C. for use later. 100 μl of plasma sample is taken, 200 μl of methanol is added into the plasma sample, the mixture is vortexed for 5 min., and then centrifuged at 10,000 r/min. for 15 min. in a centrifuge; the supernatant is taken and tested by HPLC. […] Through calculation on the basis of the experimental results, it is determined: DAUC=3.675 μg×ml^−1×h>AAUC=1.247 μg×ml^−1×h>BAUC=1.150 μg×ml^−1×h>CAUC=1.077 μg×ml^−1×h.

[8] = 60±2° C., day 0, listed as A1, hydrochloride
[9] = 60±2° C., day 5, listed as A1, hydrochloride
[10] = 60±2° C., day 10, listed as A1, hydrochloride
[11] = day 0, listed as A2, hydrochloride
[12] = day 5, listed as A2, hydrochloride
[13] = day 10, listed as A2, hydrochloride
[14] = day 0, listed as A3, hydrochloride
[15] = day 5, listed as A3, hydrochloride
[16] = day 10, listed as A3, hydrochloride

For `COc1ccc2cc3[n+](cc2c1OC)CCc1cc(O)c(O)cc1-3` [crystal form A, demethyleneberberine hydrochloride], the “X-Ray Powder Diffraction” value ([1]; 60±2° C., day 0) was “Unchanged”, the “Content (%)” value [1, 8] was 99.62% and the “Content of Relevant Substance (%)” value [1, 8] was 0.38%. For the same molecule, the “X-Ray Powder Diffraction” value ([1]; 60±2° C., day 5) was “Unchanged”, the “Content (%)” value [1, 9] was 99.63% and the “Content of Relevant Substance (%)” value [1, 9] was 0.37%. The “Content (%)” value [1, 10] was 99.61%, the “Content of Relevant Substance (%)” value [1, 10] was 0.39% and the “X-Ray Powder Diffraction” value [1, 10] was “Unchanged”. For the same molecule, the “Stability in the high-temperature environment” value ([1]; 60±2° C., hydrochloride) was “relatively stable”, the “Stability under stability test conditions (summary)” value ([1]; summary over high temperature, high humidity and strong light irradiation, hydrochloride) was “stable” and the “Stability in the high-humidity environment” value [2] was “relatively stable”. The “X-Ray Powder Diffraction” value ([2]; day 0) was “Unchanged”, the “Content (%)” value [2, 11] was 99.62% and the “Content of Relevant Substance (%)” value [2, 11] was 0.38%. For the same molecule, the “X-Ray Powder Diffraction” value ([2]; day 5) was “Unchanged”, the “Content (%)” value [2, 12] was 99.58% and the “Content of Relevant Substance (%)” value [2, 12] was 0.42%. The “X-Ray Powder Diffraction” value ([2]; day 10) was “Unchanged”, the “Content (%)” value [2, 13] was 99.60% and the “Content of Relevant Substance (%)” value [2, 13] was 0.40%. For the same molecule, the “X-Ray Powder Diffraction” value ([3]; day 0) was “Unchanged”, the “Content (%)” value [3, 14] was 99.62% and the “Content of Relevant Substance (%)” value [3, 14] was 0.38%. For the same molecule, the “X-Ray Powder Diffraction” value ([3]; day 5) was “Unchanged”, the “Content (%)” value [3, 15] was 99.61% and the “Content of Relevant Substance (%)” value [3, 15] was 0.39%. The “Content (%)” value [3, 16] was 99.60%, the “Content of Relevant Substance (%)” value [3, 16] was 0.40% and the “X-Ray Powder Diffraction” value [3, 16] was “Unchanged”. For the same molecule, the “Stability in the strong light irradiation environment” value ([3]; hydrochloride) was “relatively stable”, the “Solubility comparison of the four crystal forms (summary)” value ([4]; summary over water, methanol and ethanol systems) was “>solubility of crystal form D of demethyleneberberine hydrochloride” and the “Solubility ranking among the four crystal forms” value ([4]; water system, different temperatures, FIG. 13) was “>solubility of crystal form D of demethyleneberberine hydrochloride”. The “Solubility ranking among the four crystal forms” value [5] was “>solubility of crystal form D of demethyleneberberine hydrochloride”, the “Solubility ranking among the four crystal forms” value [6] was “>solubility of crystal form D of demethyleneberberine hydrochloride” and the AUC ([7]; calculated from the experimental results) was 1.247 µg·h/mL. The Cmax [7] was 0.292 µg/mL.
